Structures are written as SMILES. Bounds are passed on as bounds.

Experimental findings from ChEMBL document CHEMBL5291721, “A preclinical secondary pharmacology resource illuminates target-adverse drug reaction associations of marketed drugs” (Nat Commun, 2023) are described below.

The target in test [1] is T1, Muscarinic acetylcholine receptor M2 (Homo sapiens, UniProt P08172).
T1 sequence (P08172 whole entry): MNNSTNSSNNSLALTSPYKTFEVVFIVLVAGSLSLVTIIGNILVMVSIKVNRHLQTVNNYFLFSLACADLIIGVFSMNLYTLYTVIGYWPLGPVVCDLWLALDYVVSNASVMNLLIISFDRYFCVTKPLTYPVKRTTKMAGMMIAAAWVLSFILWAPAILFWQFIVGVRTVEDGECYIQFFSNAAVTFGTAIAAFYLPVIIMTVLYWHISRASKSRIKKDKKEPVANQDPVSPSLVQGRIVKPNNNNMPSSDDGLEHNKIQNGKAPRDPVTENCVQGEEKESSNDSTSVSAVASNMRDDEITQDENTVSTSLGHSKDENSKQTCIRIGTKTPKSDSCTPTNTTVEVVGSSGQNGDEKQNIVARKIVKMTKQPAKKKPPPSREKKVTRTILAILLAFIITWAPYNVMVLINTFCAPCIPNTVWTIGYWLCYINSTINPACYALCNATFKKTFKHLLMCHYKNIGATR
It is filed as functional, cell-based.

Test [2] has as its target T1, Muscarinic acetylcholine receptor M2. It is filed as functional, cell-based. This is another data set of the same source.
The target in test [3] is T2, Muscarinic acetylcholine receptor M1 (Homo sapiens, UniProt P11229).
T2 sequence (P11229 whole entry): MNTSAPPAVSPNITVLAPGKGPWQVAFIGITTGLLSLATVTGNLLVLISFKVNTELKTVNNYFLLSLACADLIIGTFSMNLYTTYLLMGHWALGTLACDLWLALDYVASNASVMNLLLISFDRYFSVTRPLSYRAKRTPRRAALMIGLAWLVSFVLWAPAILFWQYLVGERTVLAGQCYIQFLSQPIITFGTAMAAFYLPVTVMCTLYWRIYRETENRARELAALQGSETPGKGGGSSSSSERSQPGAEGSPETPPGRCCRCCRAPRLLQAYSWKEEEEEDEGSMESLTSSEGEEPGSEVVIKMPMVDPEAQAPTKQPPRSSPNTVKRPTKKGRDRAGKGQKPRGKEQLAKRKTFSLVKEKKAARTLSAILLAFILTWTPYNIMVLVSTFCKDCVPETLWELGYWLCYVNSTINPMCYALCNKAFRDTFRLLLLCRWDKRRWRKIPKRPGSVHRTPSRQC
It is filed as functional, cell-based.

Test [4] deals with T3, Alpha-2B adrenergic receptor (Homo sapiens, UniProt P18089).
T3 sequence (P18089 whole entry): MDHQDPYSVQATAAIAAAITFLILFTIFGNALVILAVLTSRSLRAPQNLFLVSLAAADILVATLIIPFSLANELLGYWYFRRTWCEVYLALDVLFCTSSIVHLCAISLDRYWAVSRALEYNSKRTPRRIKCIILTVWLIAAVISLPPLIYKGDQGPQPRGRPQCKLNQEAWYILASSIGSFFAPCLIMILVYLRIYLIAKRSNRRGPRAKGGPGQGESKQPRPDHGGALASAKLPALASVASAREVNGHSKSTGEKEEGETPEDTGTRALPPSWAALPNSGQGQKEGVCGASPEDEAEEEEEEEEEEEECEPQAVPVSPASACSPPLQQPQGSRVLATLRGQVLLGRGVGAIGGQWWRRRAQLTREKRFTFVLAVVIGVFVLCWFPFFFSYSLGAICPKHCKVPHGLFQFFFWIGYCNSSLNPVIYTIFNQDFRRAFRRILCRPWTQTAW

For test [5], the target named is Delta-type opioid receptor (Homo sapiens, UniProt P41143).
Test [6] concerns the target T4, Alpha-1A adrenergic receptor (Homo sapiens, UniProt P35348).
T4 sequence (P35348 whole entry): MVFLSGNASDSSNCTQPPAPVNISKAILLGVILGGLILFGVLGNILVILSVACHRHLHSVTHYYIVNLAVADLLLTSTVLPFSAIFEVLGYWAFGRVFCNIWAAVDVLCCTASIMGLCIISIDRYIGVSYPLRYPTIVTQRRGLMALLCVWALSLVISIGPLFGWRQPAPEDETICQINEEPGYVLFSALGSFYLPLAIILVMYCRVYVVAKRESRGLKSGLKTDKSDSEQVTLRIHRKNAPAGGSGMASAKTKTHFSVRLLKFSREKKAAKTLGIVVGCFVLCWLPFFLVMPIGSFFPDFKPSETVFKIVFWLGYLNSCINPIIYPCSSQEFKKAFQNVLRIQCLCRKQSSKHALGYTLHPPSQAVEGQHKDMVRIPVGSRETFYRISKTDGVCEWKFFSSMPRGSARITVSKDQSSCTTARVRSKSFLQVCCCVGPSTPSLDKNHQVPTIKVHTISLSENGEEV
It is filed as functional, cell-based.

Test [7] deals with T5, Alpha-2C adrenergic receptor (Homo sapiens, UniProt P18825).
T5 sequence (P18825 whole entry): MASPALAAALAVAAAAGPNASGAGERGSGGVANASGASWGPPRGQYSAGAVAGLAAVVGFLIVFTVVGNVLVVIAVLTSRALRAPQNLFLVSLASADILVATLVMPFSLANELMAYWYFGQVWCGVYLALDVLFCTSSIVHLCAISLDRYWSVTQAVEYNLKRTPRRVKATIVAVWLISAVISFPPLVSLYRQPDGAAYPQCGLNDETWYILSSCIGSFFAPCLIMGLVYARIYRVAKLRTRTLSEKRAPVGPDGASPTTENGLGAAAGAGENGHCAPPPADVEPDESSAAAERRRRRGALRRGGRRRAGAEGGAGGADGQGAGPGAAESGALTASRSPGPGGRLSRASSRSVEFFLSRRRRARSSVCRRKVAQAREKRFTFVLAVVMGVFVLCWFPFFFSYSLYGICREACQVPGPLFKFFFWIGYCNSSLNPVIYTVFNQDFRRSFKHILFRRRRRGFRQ
It is filed as functional.

The target in test [8] is Gamma-aminobutyric acid receptor subunit alpha-1 (Rattus norvegicus, UniProt P62813).
For test [9], the target named is T6, Adenosine receptor A3 (Homo sapiens, UniProt P0DMS8).
T6 sequence (P0DMS8 whole entry): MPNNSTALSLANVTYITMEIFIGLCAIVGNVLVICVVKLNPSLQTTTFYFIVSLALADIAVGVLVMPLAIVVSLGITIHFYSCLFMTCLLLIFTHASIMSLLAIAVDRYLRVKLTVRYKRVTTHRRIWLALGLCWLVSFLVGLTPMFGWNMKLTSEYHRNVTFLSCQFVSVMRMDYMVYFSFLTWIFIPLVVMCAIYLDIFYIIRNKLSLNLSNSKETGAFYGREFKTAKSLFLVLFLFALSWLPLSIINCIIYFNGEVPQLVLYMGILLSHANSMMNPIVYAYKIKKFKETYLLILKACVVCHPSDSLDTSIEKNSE

For test [10], the target named is Cannabinoid receptor 1 (Homo sapiens, UniProt P21554). It is filed as functional, cell-based.
Note: assay procedure not described here.

Sequence of Delta-type opioid receptor (P41143 whole entry): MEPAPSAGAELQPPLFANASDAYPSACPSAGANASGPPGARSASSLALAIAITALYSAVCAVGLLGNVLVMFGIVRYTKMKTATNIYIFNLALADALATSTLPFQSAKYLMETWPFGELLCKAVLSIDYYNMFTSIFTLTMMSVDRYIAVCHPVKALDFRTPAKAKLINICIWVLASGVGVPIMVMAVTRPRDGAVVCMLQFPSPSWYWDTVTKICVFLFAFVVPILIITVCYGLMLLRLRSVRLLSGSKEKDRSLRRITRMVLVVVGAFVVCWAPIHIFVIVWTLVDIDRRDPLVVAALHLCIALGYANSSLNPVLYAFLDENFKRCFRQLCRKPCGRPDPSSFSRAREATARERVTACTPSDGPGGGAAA
Sequence of Cannabinoid receptor 1 (P21554 whole entry): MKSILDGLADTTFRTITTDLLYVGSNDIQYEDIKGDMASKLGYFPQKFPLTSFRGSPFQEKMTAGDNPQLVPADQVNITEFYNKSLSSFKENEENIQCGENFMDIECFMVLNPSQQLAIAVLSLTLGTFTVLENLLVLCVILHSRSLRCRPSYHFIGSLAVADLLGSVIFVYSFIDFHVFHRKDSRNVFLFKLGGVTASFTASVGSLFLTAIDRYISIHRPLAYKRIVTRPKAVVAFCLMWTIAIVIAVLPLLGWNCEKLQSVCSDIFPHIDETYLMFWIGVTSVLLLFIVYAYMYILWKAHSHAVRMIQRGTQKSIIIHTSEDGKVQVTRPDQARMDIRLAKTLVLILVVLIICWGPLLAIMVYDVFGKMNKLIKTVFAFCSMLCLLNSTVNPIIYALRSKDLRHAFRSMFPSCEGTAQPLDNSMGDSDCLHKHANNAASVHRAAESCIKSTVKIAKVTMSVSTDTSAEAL
Sequence of Gamma-aminobutyric acid receptor subunit alpha-1 (P62813 whole entry): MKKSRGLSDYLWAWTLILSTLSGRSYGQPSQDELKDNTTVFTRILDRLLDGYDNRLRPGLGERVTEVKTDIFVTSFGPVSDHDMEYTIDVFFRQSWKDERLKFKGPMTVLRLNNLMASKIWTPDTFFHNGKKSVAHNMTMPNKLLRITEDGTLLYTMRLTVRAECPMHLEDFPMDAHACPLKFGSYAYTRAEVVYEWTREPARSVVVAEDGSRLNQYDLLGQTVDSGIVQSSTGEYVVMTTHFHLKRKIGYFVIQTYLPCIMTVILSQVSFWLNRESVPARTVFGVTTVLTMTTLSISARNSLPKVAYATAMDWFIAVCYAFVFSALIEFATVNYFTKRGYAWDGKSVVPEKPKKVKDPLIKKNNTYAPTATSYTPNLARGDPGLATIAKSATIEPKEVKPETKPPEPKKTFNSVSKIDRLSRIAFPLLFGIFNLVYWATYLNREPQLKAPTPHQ

What is called AC50 is the concentration giving half of the maximal activity seen. Low values mean activity at low concentration, high ones activity only at high concentration. For `O=C(Nc1ccccc1)OCC(CN1CCCCC1)OC(=O)Nc1ccccc1` (stereo not given) [DIPERODON], the AC50 was above 30 µM in [1]; above 30 µM in [2]; above 30 µM in [3]; above 10 µM in test [4]; above 10 µM in test [5]; above 30 µM in test [6]. Besides, the AC50 was above 10 µM in [7], above 10 µM in test [8], above 30 µM in [9] and above 30 µM in test [10].
